Literature values as cited in patent US8748087B2, “Sequence of reverse transcriptase gene and method of use” (Fudan University, priority 2005, dated 2014).

System: HBV
Conditions: patients with chronic hepatitis B

interferon alpha
overall response rates: less than 30%
